Experimental data as given in patent US10947263B2, “Cyclic dinucleotides as anticancer agents” (BRISTOL-MYERS SQUIBB COMPANY, priority 2017, dated 2021).
Read-outs that look alike come from different tables or passages of the source.

Experiments:
[1] = molecular target: T1, STING WT (His-TVMV-S-hSTING(155-341)-H232R) (Homo sapiens, UniProt Q86WV6, H232R); experiment: STING HTRF binding assay (time resolved FRET competition), STING WT; conditions: 20 nM His-tagged STING WT cytoplasmic domain, 200 nM fluorescein-labeled cGAMP analog probe, one hour; read-out: HTRF Binding Assays IC50 WT
T1 construct: STING WT: His-TVMV-S-hSTING(155-341)-H232R
T1 sequence (Q86WV6 with tags, fused parts or gaps H232R): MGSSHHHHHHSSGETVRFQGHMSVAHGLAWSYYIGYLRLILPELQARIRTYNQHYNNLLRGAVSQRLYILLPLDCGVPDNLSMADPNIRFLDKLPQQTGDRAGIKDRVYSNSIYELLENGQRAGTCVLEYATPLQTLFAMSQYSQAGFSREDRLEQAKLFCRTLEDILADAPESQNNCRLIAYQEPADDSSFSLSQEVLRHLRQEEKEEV
Description: (§1) A time resolved FRET-based competition binding assay was used to assess test article binding to STING WT and STING AQ. His-tagged STING cytoplasmic domain (WT or AQ) at a concentration of 20 nM was incubated with 2.5 nM Tb-labeled anti-His antibody, test compound, and fluorescein-labeled cGAMP analog probe (BioLog cat. no. C195) at a concentration of 200 nM (STING WT) or 40 nM (STING AQ) in PBS containing 0.005% Tween-20 and 0.1% BSA for one hour. Fluorescence at 495 nm and 520 nm was measured using an EnVision microplate reader to quantify FRET between Tb-labeled anti-His antibody and fluorescein-labeled probe. Background was defined as the signal obtained in the absence of STING protein, and background subtracted FRET ratios were normalized to the maximum signal obtained in the absence of test compound. These values were converted to a percent inhibition. Percent inhibition was determined for test compounds at 11 concentrations. The IC50, defined as the concentration of competing test compound needed to reduce specific binding of the probe by 50%, was calculated using the 4 parameter logistic equation to fit the data
STING WT: His-TVMV-S-hSTING(155-341)-H232R • […] […] […] […] LRQEEKEEV (SEQ ID NO:1)

[2] = test system: STING / NF-κB pathway in THP1-Dual cells; experiment: STING THP1 Reporter Assay, NF-κB pathway (SEAP, QUANTI-Blue); assay type: cell-based; conditions: 10% human plasma, 100% activation = 100 μM cGAMP, SEAP readout, read-out: THP1 Reporter Assays EC50 NFkB
Description: (§2) THP1-Dual™ cells were derived from the human THP-1 monocyte cell line by stable integration of two inducible reporter constructs. To this end, THP1-Dual™ cells allow the simultaneous study of the […], by monitoring the activity of SEAP, and the IRF pathway by assessing the activity of a secreted luciferase (Lucia). Both reporter proteins are readily measurable in the cell culture supernatant when using QUANTI-Blue™, a SEAP detection reagent, and QUANTI-Luc™, a luciferase detection reagent.
(§3) THP1-Dual™ cells induce the activation of NF-κB in response to STING agonists. They also trigger the IRF pathway upon stimulation with STING agonists, such as cGAMP. Here, the THP-1-Dual cells were used to assess STING binders for function on the cellular level.
(§4) Serial dilutions of compounds in DMSO were added to low volume 384 well plates at 100 nl/well using an ECHO acoustic dispenser (Labcyte, model 550) to achieve final starting concentration of 100 μM in cell suspension. THP-1 Dual™ STING reporter cells (Invivogen, Dual cells cat #THPD-nfis) were added to the plates with compounds at 15,000 cells in 10 μL per well in RPMI media (Gibco, cat #11875) containing 10% human plasma in a low volume 384-well black wall clear bottom tissue culture plate (Corning, cat #3542) for SEAP assay and low volume solid white plate (Corning, cat #3826) for luciferase assay. One column of the plate was reserved for treatment with cGAMP at 100 μM for 100% activation calculation and one column for no treatment (DMSO only) for baseline activation. Plates were then incubated in 37 OC incubator at 5% CO2 for 20 hours.
(§5) In the SEAP assay, […] 2× QuantiBlue (Invivogen, cat #Rep-qb2) is added to 384 well black plates seeded with THP1 cells and incubated at 37° C. for 2 hours. Plates were read on the Envision (Perkin Elmer) at 620 nm wavelength (OD620). In the luciferase assay, 5 μl of Quantiluc (Invivogen, Rep-qlc2) is added to white 384 well plates seeded with THP1 cells and read at 5 minutes on the Envision (Perkin Elmer) using a luminescence protocol (RLU). For both cell lines, 100% activation was determined by value (RLU) of THP-1 Dual STING cells stimulated with 100 μM cGAMP (Invivogen, cat #TLRL-NACGA23-5).

[3] = molecular target: T2, STING AQ (His-TVMV-S-hSTING(155-341)-G230A-R293Q) (Homo sapiens, UniProt Q86WV6, G230A/H232R/R293Q); experiment: STING HTRF binding assay (time resolved FRET competition), STING AQ; conditions: 20 nM His-tagged STING AQ cytoplasmic domain, 40 nM fluorescein-labeled cGAMP analog probe, one hour; read-out: HTRF Binding Assays IC50 AQ
T2 construct: STING AQ: His-TVMV-S-hSTING(155-341)-G230A-R293Q
T2 sequence (Q86WV6 with tags, fused parts or gaps G230A/H232R/R293Q): as the sequence (Q86WV6 with tags, fused parts or gaps H232R) above, with G99A, R162Q counted along it
Description: as §1
STING AQ: His-TVMV-S-hSTING(155-341)-G230A-R293Q • […] […] […] […] LRQEEKEEV (SEQ ID NO:2)

[4] = test system: STING / IRF pathway in THP1-Dual cells; experiment: STING THP1 Reporter Assay, IRF pathway (secreted Lucia luciferase, QUANTI-Luc); assay type: cell-based; conditions: 10% human plasma, 100% activation = 100 μM cGAMP, luciferase readout, read-out: THP1 Reporter Assays EC50 IRF3
Description: as §2, §3, §4, §5

| Structure (SMILES) | IC50 [1] | EC50 ([2]; 20 hours) | IC50 [3] | EC50 ([4]; 20 hours) | EC50 ([2]; Homo sapiens, THP1-Dual, 20 h) | EC50 ([4]; Homo sapiens, THP1-Dual, 20 h) |
| --- | --- | --- | --- | --- | --- | --- |
| NC(=O)c1cccc2c1nnn2[C@@H]1O[C@@H]2COP(=O)(O)O[C@H]3[C@@H](F)[C@H](n4cnc5c(N)ncnc54)O[C@@H]3COP(=O)(S)O[C@@H]1[C@@H]2O (single isomer, unassigned) [Example 4-1] | 60 nM | 12000 nM | 10 nM | 4500 nM |  |  |
| NC(=O)c1cccc2c1nnn2[C@@H]1O[C@@H]2COP(=O)(O)O[C@H]3[C@@H](F)[C@H](n4cnc5c(N)ncnc54)O[C@@H]3COP(=O)(S)O[C@@H]1[C@@H]2O (single isomer, unassigned) [Example 4-2] | 10 nM | 1700 nM | 2 nM | 700 nM |  |  |
| Nc1ncnc2c1ncn2[C@@H]1O[C@@H]2COP(=O)(S)O[C@@H]3[C@H](O)[C@@H](COP(=O)(O)O[C@H]2[C@H]1F)O[C@H]3n1nnc2c([N+](=O)[O-])cccc21 (single isomer, unassigned) [Example 5-1] | 10 nM |  | 10 nM |  | 7600 nM | 3500 nM |
| Nc1ncnc2c1ncn2[C@@H]1O[C@@H]2COP(=O)(S)O[C@@H]3[C@H](O)[C@@H](COP(=O)(O)O[C@H]2[C@H]1F)O[C@H]3n1nnc2c([N+](=O)[O-])cccc21 (single isomer, unassigned) [Example 5-2] |  | 13000 nM | 10 nM | 5600 nM |  |  |
| NC(=O)c1cccc2c1nnn2[C@@H]1O[C@@H]2COP(=O)(O)O[C@H]3[C@@H](F)[C@H](n4cnc5c(N)ncnc54)O[C@@H]3COP(=O)(S)O[C@@H]1[C@@H]2F (single isomer, unassigned) [Example 6-1] | 20 nM | 4100 nM | 10 nM | 1400 nM |  |  |
| NC(=O)c1cccc2c1nnn2[C@@H]1O[C@@H]2COP(=O)(O)O[C@H]3[C@@H](F)[C@H](n4cnc5c(N)ncnc54)O[C@@H]3COP(=O)(S)O[C@@H]1[C@@H]2F (single isomer, unassigned) [Example 6-2] | 50 nM | 36800 nM | 4 nM | 8800 nM |  |  |
| Nc1ncnc2c1ncn2[C@@H]1O[C@@H]2COP(=O)(S)O[C@@H]3[C@H](O)[C@@H](COP(=O)(S)O[C@H]2[C@H]1F)O[C@H]3n1nnc2c([N+](=O)[O-])cccc21 (single isomer, unassigned) [Example 7-1] | 10 nM | 2100 nM | 10 nM | 600 nM |  |  |
| Nc1ncnc2c1ncn2[C@@H]1O[C@@H]2COP(=O)(S)O[C@@H]3[C@H](O)[C@@H](COP(=O)(S)O[C@H]2[C@H]1F)O[C@H]3n1nnc2c([N+](=O)[O-])cccc21 (single isomer, unassigned) [Example 7-2] | 240 nM | 64000 nM | 40 nM | 28000 nM |  |  |
| Nc1ncnc2c1ncn2[C@@H]1O[C@@H]2COP(=O)(S)O[C@@H]3[C@H](O)[C@@H](COP(=O)(S)O[C@H]2[C@H]1F)O[C@H]3n1nnc2c([N+](=O)[O-])cccc21 (single isomer, unassigned) [Example 7-3] | 60 nM | 15300 nM | 10 nM | 7200 nM |  |  |
| Nc1ncnc2c1ncn2[C@@H]1O[C@@H]2COP(=O)(S)O[C@@H]3[C@H](O)[C@@H](COP(=O)(S)O[C@H]2[C@H]1F)O[C@H]3n1nnc2c([N+](=O)[O-])cccc21 (single isomer, unassigned) [Example 7-4] | 50 nM | 8000 nM | 10 nM | 5500 nM |  |  |
| NC(=O)c1cccc2c1nnn2[C@@H]1O[C@@H]2COP(=O)(S)O[C@H]3[C@@H](F)[C@H](n4cnc5c(N)ncnc54)O[C@@H]3COP(=O)(S)O[C@@H]1[C@@H]2O (single isomer, unassigned) [Example 8-1] | 10 nM | 2400 nM | 10 nM | 1000 nM |  |  |
| NC(=O)c1cccc2c1nnn2[C@@H]1O[C@@H]2COP(=O)(S)O[C@H]3[C@@H](F)[C@H](n4cnc5c(N)ncnc54)O[C@@H]3COP(=O)(S)O[C@@H]1[C@@H]2O (single isomer, unassigned) [Example 8-2] | 10 nM | 7600 nM | 10 nM | 5200 nM |  |  |
| NC(=O)c1cccc2c1nnn2[C@@H]1O[C@@H]2COP(=O)(S)O[C@H]3[C@@H](F)[C@H](n4cnc5c(N)ncnc54)O[C@@H]3COP(=O)(S)O[C@@H]1[C@@H]2O (single isomer, unassigned) [Example 8-3] | 140 nM | 15300 nM | 20 nM | 10000 nM |  |  |
| Nc1ncnc2c1ncn2[C@@H]1O[C@@H]2COP(=O)(S)O[C@@H]3[C@H](O)[C@@H](COP(=O)(S)O[C@H]2[C@H]1F)O[C@H]3n1nnc2c(C(F)(F)F)cccc21 (single isomer, unassigned) [Example 9-1] | 20 nM | 2200 nM | 4 nM | 800 nM |  |  |
| Nc1ncnc2c1ncn2[C@@H]1O[C@@H]2COP(=O)(S)O[C@@H]3[C@H](O)[C@@H](COP(=O)(S)O[C@H]2[C@H]1F)O[C@H]3n1nnc2c(C(F)(F)F)cccc21 (single isomer, unassigned) [Example 9-2] | 130 nM | 15700 nM | 10 nM | 7900 nM |  |  |
| Nc1ncnc2c1ncn2[C@@H]1O[C@@H]2COP(=O)(S)O[C@@H]3[C@H](O)[C@@H](COP(=O)(S)O[C@H]2[C@H]1F)O[C@H]3n1nnc2c(C(F)(F)F)cccc21 (single isomer, unassigned) [Example 9-3] | 900 nM | > 100000 nM | 40 nM | 69400 nM |  |  |
| Nc1ncnc2c1ncn2[C@@H]1O[C@@H]2COP(=O)(S)O[C@@H]3[C@H](O)[C@@H](COP(=O)(S)O[C@H]2[C@H]1F)O[C@H]3n1nnc2c(C(F)(F)F)cccc21 (single isomer, unassigned) [Example 9-4] | 12500 nM | > 100000 nM | 600 nM | > 100000 nM |  |  |
| Nc1ncnc2c1ncn2[C@@H]1O[C@@H]2COP(=O)(O)O[C@@H]3[C@H](O)[C@@H](COP(=O)(O)O[C@H]2[C@H]1O)O[C@H]3n1nnc2c(N)cccc21 [Example 21, (1R,6R,8R,9R,10S,15R,17R,18R)-17-(4-amino-1H-1,2,3-benzotriazol-1-yl)-8-(6-amino-9H-purin-9-yl)-3,9,12,18-tetrahydroxy-2,4,7,11,13,16-hexaoxa-3λ^5,12λ^5-diphosphatricyclo[13.2.1.0^6,10]octadecane-3,12-dione] | 1700 nM |  |  |  | > 100000 nM | > 100000 nM |
